The values below come from the NIST ThermoML archive (doi:10.1016/j.fluid.2007.10.013).

A short description of the data set: xn = mol fraction of the nth substance listed. The conditions noted are these: 101 kPa, Liquid, Taylor dispersion method, x1 = 0.

In the case of `NC(CO)C(=O)O` (centres undefined) [(.+-.)-serine] + O, the binary diffusion coefficient was 7.72e-10 m2/s (293.2 K); 8.8e-10 m2/s (298.2 K); 9.91e-10 m2/s (303.2 K); 1.26e-09 m2/s (313.2 K); 1.55e-09 m2/s (323.2 K); 1.88e-09 m2/s (333.2 K).

Regarding `NC(CCO)C(=O)O` (stereo not drawn) [DL-2-amino-4-hydroxybutanoic acid] + O, the binary diffusion coefficient worked out at 7.26e-10 m2/s (293.2 K); 8.39e-10 m2/s (298.2 K); 9.39e-10 m2/s (303.2 K); 1.19e-09 m2/s (313.2 K); 1.47e-09 m2/s (323.2 K); 1.78e-09 m2/s (333.2 K).

`C[C@H](O)[C@H](N)C(=O)O` [DL-allothreonine] + O: the binary diffusion coefficient (293.2 K) is 6.97e-10 m2/s; the binary diffusion coefficient (298.2 K) came to 7.96e-10 m2/s; the binary diffusion coefficient (303.2 K) is 9.06e-10 m2/s; the binary diffusion coefficient (313.2 K) came to 1.14e-09 m2/s; the binary diffusion coefficient (323.2 K) is 1.42e-09 m2/s; the binary diffusion coefficient (333.2 K) turned out to be 1.72e-09 m2/s.

Consider `C[C@@H](O)[C@H](N)C(=O)O` [DL-threonine] + O, for which the binary diffusion coefficient came out at 6.91e-09 m2/s (293.2 K); 7.99e-09 m2/s (298.2 K); 9.04e-09 m2/s (303.2 K); 1.14e-08 m2/s (313.2 K); 1.43e-08 m2/s (323.2 K); 1.72e-08 m2/s (333.2 K).
